Results as given in patent US20220204512A1, “SUBSTITUTED FUSED BICYCLIC DERIVATIVE, PREPARATION METHOD THEREFOR, AND APPLICATION THEREOF IN MEDICINES” (Jiangsu Hengrui Medicine Co., Ltd., priority 2019, published 2022).

Legend:
ERK1 = biological target: T1, ERK1 (Homo sapiens, UniProt P27361); experiment: ERK1 enzyme activity test (ADP-Glo Kinase Assay); type: biochemical; settings: ADP-Glo chemiluminescence
T1 construct: purchased R&D 1879-KS-010
Protocol: (§1) The purpose of this experiment is to detect the inhibitory ability of the compounds of the present disclosure on the ERK1 enzyme activity and to evaluate the in vitro activity of the compounds based on the IC50. The ADP-Glo™ Kinase Assay Kit was used in this experiment. The substrate was phosphorylated under the action of the enzyme and ADP was produced at the same time. The ADP-Glo reagent was added to remove the unreacted ATP in the reaction system, and the ADP produced by the reaction was detected with kinase detection reagent. In the presence of the compound, the inhibition rate of the compound was calculated by measuring the signal value.
Preparation of Enzyme and substrate: ERK1 (1879-KS-010, R&D) and substrate (AS-61777, anaspec) were prepared to 0.75 ng/p1 and 100 μM respectively in a buffer, and then the enzyme solution and the substrate solution were prepared into a mixed solution at a volume ratio of 2:1 for later use. ATP was diluted to 300 μM with buffer. The compound was dissolved in DMSO (dimethyl sulfoxide, Shanghai Titan Scientific Co., Ltd.) to prepare a stock solution with an initial concentration of 20 mM, and then Bravo was used to prepare the compound. Finally, 3 μL of a mixed solution of enzyme and substrate, and 1 μL of different concentrations of the compound (the initial concentration was 50 μM, 4-fold dilution) were added to each well of the 384-well plate, and the plate was incubated at 30° C. for 10 minutes, and finally 1 μL of 300 μM ATP solution was added to each well, and the plate was incubated at 30° C. for 2 hours. Then 5 μL of ADP-Glo was added, and the plate was incubated at 30° C. for 40 minutes. Then 10 μL of kinase detection buffer was added, and the plate was incubated at 30° C. for 40 minutes. The 384-well plate was taken out and placed in a microplate reader (BMG labtech, PHERAstar FS), and the chemiluminescence was measured by a microplate reader.
(§2) Microsoft Excel, Graphpad Prism 5 was used to process and analyze the data.

ERK2 = biological target: T2, ERK2 (Homo sapiens, UniProt P28482); experiment: ERK2 enzyme activity test (ADP-Glo Kinase Assay); type: biochemical; settings: ADP-Glo chemiluminescence
T2 construct: purchased R&D 1879-KS-010
T2 sequence (P28482 2-360 limits assumed): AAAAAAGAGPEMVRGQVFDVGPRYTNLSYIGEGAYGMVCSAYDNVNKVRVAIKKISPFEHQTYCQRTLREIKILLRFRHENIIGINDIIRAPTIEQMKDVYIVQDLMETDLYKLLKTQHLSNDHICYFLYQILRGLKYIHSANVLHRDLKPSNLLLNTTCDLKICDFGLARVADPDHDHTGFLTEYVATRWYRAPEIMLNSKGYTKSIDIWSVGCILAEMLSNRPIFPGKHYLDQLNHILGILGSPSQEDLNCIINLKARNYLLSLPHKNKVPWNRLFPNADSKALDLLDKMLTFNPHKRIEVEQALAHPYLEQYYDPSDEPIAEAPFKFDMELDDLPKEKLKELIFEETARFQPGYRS
Protocol: as §1, with “the ERK2” for “the ERK1”, “enzyme activity,” for “enzyme activity”
Preparation of enzyme and substrate: ERK2 (1879-KS-010, R&D) and substrate (custom peptide, Gill Biochemical) were prepared to 0.75 ng/ml and 1500 μM in a buffer (40 mM Tris, 20 mM MgCl2, 0.1 mg/ml BSA, 50 μM DTT), and then the enzyme solution and the substrate solution were prepared into a mixed solution at a volume ratio of 2:1 for later use. ATP was diluted to 500 μM with buffer. The compound was dissolved in DMSO (dimethyl sulfoxide, Shanghai Titan Scientific Co., Ltd.) to prepare a stock solution with an initial concentration of 20 mM, and then Bravo was used to prepare the compound. Finally, 3 μL of a mixed solution of enzyme and substrate, and 1 μL substrate of different concentrations of the compound (the initial concentration is 50 μM, 4-fold dilution) were added to each well of the 384-well plate, and the plate was incubated at 30° C. for 10 minutes, and finally 1 μL 500 μM ATP solution was added to each well, and the plate was incubated at 30° C. for 2 hours. Then 5 μL of ADP-Glo was added, and the plate was incubated at 30° C. for 40 minutes. Then 10 μL of kinase detection buffer was added, and the plate was incubated at 30° C. for 40 minutes. The 384-well plate was taken out and placed in a microplate reader (BMG labtech, PHERAstar FS), and the chemiluminescence was measured by a microplate reader.
as §2

Colo205 cells = experiment: In vitro proliferation inhibition test on Colo205 tumor cells (CellTiter-Glo); type: cell-based; settings: Homo sapiens, COLO 205, 72 h; Colo205 cell proliferation, 3 days of culture, CTG
Protocol: The purpose of this experiment is to test the inhibitory activity of the compounds of the present disclosure on the proliferation of Colo205 cells (CCL-222, ATCC) in vitro. The cells were treated in vitro with different concentrations of the compounds. After 3 days of culture, the cell proliferation was tested with CTG (CellTiter-Glo® Luminescent Cell Viability Assay, Promega, Catalog No. G7573) reagent, and the in vitro activity of the compounds was evaluated according to the ICso value.
In the following, the in vitro proliferation inhibition test method of Colo205 cells is taken as an example to illustrate the method for testing the in vitro proliferation inhibitory activity of the compounds of the present disclosure on tumor cells. This method is also applicable to, but not limited to, the in vitro proliferation inhibitory activity test on other tumor cells.
Colo205 cells were digested, centrifuged and then resuspended. The single cell suspension was mixed well, and the density of viable cells was adjusted to 5.0×10^4 cells/ml with cell culture medium (RPMI1640+2% FBS), and 95 μL/well was added to a 96-well cell culture plate. Only 100 μL medium was added to the peripheral wells of the 96-well plate. The culture plate was incubated in an incubator for 24 hours (37° C., 5% CO2).
The compound was dissolved in DMSO (dimethyl sulfoxide, Shanghai Titan Scientific Co., Ltd.) and prepared as a stock solution with an initial concentration of 20 mM. The initial concentration of the small molecule compound was 2 mM, and then 4-fold diluted into 9 points, and the 10th point was DMSO. Another 96-well plate was taken, and 90 μL of cell culture medium (RPMI1640+2% FBS) was added to each well. Then 10 μL of different concentrations of the test sample was added to each well. The mixture was mixed well, and then 5μL of different concentrations of the test sample was added to the cell culture plate. Each sample has two duplicate holes. The culture plate was incubated in the incubator for 3 days (37° C., 5% CO2). The 96-well cell culture plate was taken out. 50 μL solution of CTG was added to each well, and the plate was incubated for 10 minutes at room temperature. In a microplate reader (BMG labtech, PHERAstar FS), chemiluminescence was measured with the microplate reader.
as §2

[1] = Pharmacokinetics assay in mice; type: in vivo; settings: female, mouse, po, C57 mice, intragastric, 2 mg/kg, plasma; for Vd/F: read-out: Apparent distribution volume Vz/F; for AUC: read-out: Area under curve AUC; for CL/F: read-out: Clearance CLz/F; for half-life: read-out: Half-life T1/2 (converted); for Cmax: read-out: Plasma concentration Cmax; for MRT: read-out: Residence time MRT
Protocol: Mice were used as test animals. The drug concentration in plasma at different time points was determined by LC/MS/MS method after administration of the compounds 1-P2, 2-P2, 4-P2, 6-P2, 9-P2, 10-P2 and 11-P2. The pharmacokinetic behavior of the compounds of the present disclosure was studied and evaluated in mice.
Sixty-three C57 mice (female, equally divided into seven groups) were purchased from Shanghai Jiesijie Laboratory Animal Co., LTD. (Certificate No.: SCXK(Shanghai)2013-0006).
A certain amount of the test compound was weighed, dissolved in 5% of DMSO by volume and 5% of tween 80, followed by the additon of 90% of normal saline to prepare a 0.1 mg/mL colorless, clear and transparent solution.
After an overnight fast, C57 mice were intragastrically administered the test compound at an administration dose of 2 mg/kg and an administration volume of 0.2 ml/10 g.
The mice were intragastrically administered the test compounds. 0.1 ml of blood was taken before the administration and at 0.25, 0.5, 1.0, 2.0, 4.0, 6.0, 8.0, 11.0 and 24.0 hours after the administration. The samples were stored in heparinized tubes, and centrifuged for 10 minutes at 3500 rpm to separate the blood plasma. The plasma samples were stored at −20° C.
The content of the test compound in the plasma of mice after intragastrical administration of the test compound at different concentrations was determined: 25 μL of […] plasma at each time point after the administration was taken, followed by the addition of 50 μL of the internal standard camptothecin solution (100ng/mL) and 200 μL of acetonitrile. The resulting solution was vortex-mixed for 5 minutes, and centrifuged for 10 minutes (4000 rpm). 4 μL of the supernatant was taken from the plasma samples for LC/MS/MS analysis.

T1 sequence (P27361 whole entry): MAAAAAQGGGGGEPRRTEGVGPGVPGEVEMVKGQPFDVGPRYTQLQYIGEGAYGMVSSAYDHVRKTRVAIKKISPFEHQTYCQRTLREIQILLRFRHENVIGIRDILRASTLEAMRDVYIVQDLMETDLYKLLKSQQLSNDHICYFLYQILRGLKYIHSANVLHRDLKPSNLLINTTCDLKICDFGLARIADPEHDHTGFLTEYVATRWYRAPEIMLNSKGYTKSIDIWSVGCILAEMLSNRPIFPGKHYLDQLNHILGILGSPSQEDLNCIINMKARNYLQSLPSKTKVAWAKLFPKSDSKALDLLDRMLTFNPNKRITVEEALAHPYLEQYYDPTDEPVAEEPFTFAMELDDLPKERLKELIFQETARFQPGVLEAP

| IC50 (ERK1) [nM] | IC50 (ERK2) [nM] | IC50 (Colo205 cells) [nM] | Vd/F [1] [L/kg] | AUC [1] [ng·h/mL] | CL/F [1] [mL/min/kg] | half-life [1] [h] | Cmax [1] [ng/mL] | MRT [1] [h] | SMILES |
| --- | --- | --- | --- | --- | --- | --- | --- | --- | --- |
| 7 | 1.5 | 17.4 | 3.75 | 1110 | 29.7 | 1.46 | 501 | 1.84 | COc1cc(F)cc([C@@H](CO)NC(=O)[C@@H](C)N2CCc3cc(-c4nc(Nc5ccnn5C)ncc4C)cn3C2=O)c1 [Example 1-P2, (R)-N-((S)-1-(3-Fluoro-5-methoxyphenyl)-2-hydroxyethyl)-2-(6-(5-methyl-2-((1-methyl-1H-pyrazol-5-yl)amino)pyrimidin-4-yl)-1-oxo-3,4-dihydropyrrolo[1,2-c]pyrimidin-2(1H)-yl)propanamide] |
| 4.6 | 1.7 | 15 | 5.94 | 994 | 33.5 | 2.05 | 867 | 1.08 | COc1cc(F)cc([C@@H](CO)NC(=O)[C@@H](C)N2CCc3cc(-c4nc(NC5CCOCC5)ncc4Cl)cn3C2=O)c1 [Example 2-P2, (R)-2-(6-(5-Chloro-2-((tetrahydro-2H-pyran-4-yl)amino)pyrimidin-4-yl)-1-oxo-3,4-dihydropyrrolo[1,2-c]pyrimidin-2(1H)-yl)-N-((S)-1-(3-fluoro-5-methoxyphenyl)-2-hydroxyethyl)propanamide] |
| 3.8 | 1 | 10 | 3.29 | 936 | 35.5 | 1.07 | 905 | 1.07 | COc1cc(F)cc([C@@H](CO)NC(=O)[C@@H](C)N2CCn3cc(-c4nc(NC5CCOCC5)ncc4Cl)cc3C2=O)c1 [Example 4-P2, (R)-2-(7-(5-Chloro-2-((tetrahydro-2H-pyran-4-yl)amino)pyrimidin-4-yl)-1-oxo-3,4-dihydropyrrolo[1,2-a]pyrazin-2(1H)-yl)-N-((S)-1-(3-fluoro-5-methoxyphenyl)-2-hydroxyethyl)propanamide] |
| 9 | 1.9 | 17.7 | 3.14 | 1330 | 25.1 | 1.44 | 1410 | 0.838 | Cc1cccc([C@@H](CO)NC(=O)[C@@H](C)N2CCn3cc(-c4nc(NC5CCOCC5)ncc4Cl)cc3C2=O)c1 [Example 9-P2, (R)-2-(7-(5-Chloro-2-((tetrahydro-2H-pyran-4-yl)amino)pyrimidin-4-yl)-1-oxo-3,4-dihydropyrrolo[1,2-a]pyrazin-2(1H)-yl)-N-((S)-2-hydroxy-1-(m-tolyl)ethyl)propanamide] |
| 17 | 2.1 | 26 | 3.51 | 784 | 42.4 | 0.957 | 813 | 1.15 | Cc1cccc([C@@H](CO)NC(=O)[C@@H](C)N2CCc3cc(-c4nc(NC5CCOCC5)ncc4Cl)cn3C2=O)c1 [Example 11-P2, (R)-2-(6-(5-Chloro-2-((tetrahydro-2H-pyran-4-yl)amino)pyrimidin-4-yl)-1-oxo-3,4-dihydropyrrolo[1,2-c]pyrimidin-2(1H)-yl)-N-((S)-2-hydroxy-1-(m-tolyl)ethyl)propanamide] |
